Source: patent US20250270209A1 (INTERLINE THERAPEUTICS, INC., priority 2022, published 2025)

Assays:
LRRK2 wild type enzyme = LRRK2 wild type enzyme (Homo sapiens, UniProt Q5S007); experiment: Biochemical Assay: LRRK2 TR-FRET (LanthaScreen) kinase assay with LRRKtide substrate; settings: LRRK2 Inhibition, Table 8
Summary of the method: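 TR-FRET detection (Tb-labelled phospho-LRRKtide antibody, EDTA stop, 30 min) followed a 120 min, 23 °C reaction of 3 nM wild-type human LRRK2 with LRRKtide (400 nM) and ATP (25 μM) in Tris pH 8.0. Compounds: 11-point 3-fold series from 10 μM, 15 min enzyme preincubation.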

[1] = molecular target: T1, wild type LRRK2 overexpressed in recombinant HEK-293T cells (Homo sapiens, UniProt Q5S007); experiment: pS935 LRRK2 Cell Assay (HTRF, phospho-LRRK2 Ser935); type: cell-based; settings: LRRK2 Inhibition, Table 8, 2 hours compound incubation
T1 construct: host or cells: HEK293T (transient transfection with pCMV-LRRK2 WT plasmid)
Summary of the method: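 Phospho-Ser935 LRRK2 measured by two-antibody HTRF (Eu-cryptate donor, d2 acceptor; 665/615 nm ratio) after overnight detection at 23° C. Before lysis, transiently LRRK2-transfected HEK-293T cells were exposed 2 h at 37° C to a 9-point, 3-fold series from 10 μM, with DMSO at 0.2%.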

T1 sequence (Q5S007 whole entry): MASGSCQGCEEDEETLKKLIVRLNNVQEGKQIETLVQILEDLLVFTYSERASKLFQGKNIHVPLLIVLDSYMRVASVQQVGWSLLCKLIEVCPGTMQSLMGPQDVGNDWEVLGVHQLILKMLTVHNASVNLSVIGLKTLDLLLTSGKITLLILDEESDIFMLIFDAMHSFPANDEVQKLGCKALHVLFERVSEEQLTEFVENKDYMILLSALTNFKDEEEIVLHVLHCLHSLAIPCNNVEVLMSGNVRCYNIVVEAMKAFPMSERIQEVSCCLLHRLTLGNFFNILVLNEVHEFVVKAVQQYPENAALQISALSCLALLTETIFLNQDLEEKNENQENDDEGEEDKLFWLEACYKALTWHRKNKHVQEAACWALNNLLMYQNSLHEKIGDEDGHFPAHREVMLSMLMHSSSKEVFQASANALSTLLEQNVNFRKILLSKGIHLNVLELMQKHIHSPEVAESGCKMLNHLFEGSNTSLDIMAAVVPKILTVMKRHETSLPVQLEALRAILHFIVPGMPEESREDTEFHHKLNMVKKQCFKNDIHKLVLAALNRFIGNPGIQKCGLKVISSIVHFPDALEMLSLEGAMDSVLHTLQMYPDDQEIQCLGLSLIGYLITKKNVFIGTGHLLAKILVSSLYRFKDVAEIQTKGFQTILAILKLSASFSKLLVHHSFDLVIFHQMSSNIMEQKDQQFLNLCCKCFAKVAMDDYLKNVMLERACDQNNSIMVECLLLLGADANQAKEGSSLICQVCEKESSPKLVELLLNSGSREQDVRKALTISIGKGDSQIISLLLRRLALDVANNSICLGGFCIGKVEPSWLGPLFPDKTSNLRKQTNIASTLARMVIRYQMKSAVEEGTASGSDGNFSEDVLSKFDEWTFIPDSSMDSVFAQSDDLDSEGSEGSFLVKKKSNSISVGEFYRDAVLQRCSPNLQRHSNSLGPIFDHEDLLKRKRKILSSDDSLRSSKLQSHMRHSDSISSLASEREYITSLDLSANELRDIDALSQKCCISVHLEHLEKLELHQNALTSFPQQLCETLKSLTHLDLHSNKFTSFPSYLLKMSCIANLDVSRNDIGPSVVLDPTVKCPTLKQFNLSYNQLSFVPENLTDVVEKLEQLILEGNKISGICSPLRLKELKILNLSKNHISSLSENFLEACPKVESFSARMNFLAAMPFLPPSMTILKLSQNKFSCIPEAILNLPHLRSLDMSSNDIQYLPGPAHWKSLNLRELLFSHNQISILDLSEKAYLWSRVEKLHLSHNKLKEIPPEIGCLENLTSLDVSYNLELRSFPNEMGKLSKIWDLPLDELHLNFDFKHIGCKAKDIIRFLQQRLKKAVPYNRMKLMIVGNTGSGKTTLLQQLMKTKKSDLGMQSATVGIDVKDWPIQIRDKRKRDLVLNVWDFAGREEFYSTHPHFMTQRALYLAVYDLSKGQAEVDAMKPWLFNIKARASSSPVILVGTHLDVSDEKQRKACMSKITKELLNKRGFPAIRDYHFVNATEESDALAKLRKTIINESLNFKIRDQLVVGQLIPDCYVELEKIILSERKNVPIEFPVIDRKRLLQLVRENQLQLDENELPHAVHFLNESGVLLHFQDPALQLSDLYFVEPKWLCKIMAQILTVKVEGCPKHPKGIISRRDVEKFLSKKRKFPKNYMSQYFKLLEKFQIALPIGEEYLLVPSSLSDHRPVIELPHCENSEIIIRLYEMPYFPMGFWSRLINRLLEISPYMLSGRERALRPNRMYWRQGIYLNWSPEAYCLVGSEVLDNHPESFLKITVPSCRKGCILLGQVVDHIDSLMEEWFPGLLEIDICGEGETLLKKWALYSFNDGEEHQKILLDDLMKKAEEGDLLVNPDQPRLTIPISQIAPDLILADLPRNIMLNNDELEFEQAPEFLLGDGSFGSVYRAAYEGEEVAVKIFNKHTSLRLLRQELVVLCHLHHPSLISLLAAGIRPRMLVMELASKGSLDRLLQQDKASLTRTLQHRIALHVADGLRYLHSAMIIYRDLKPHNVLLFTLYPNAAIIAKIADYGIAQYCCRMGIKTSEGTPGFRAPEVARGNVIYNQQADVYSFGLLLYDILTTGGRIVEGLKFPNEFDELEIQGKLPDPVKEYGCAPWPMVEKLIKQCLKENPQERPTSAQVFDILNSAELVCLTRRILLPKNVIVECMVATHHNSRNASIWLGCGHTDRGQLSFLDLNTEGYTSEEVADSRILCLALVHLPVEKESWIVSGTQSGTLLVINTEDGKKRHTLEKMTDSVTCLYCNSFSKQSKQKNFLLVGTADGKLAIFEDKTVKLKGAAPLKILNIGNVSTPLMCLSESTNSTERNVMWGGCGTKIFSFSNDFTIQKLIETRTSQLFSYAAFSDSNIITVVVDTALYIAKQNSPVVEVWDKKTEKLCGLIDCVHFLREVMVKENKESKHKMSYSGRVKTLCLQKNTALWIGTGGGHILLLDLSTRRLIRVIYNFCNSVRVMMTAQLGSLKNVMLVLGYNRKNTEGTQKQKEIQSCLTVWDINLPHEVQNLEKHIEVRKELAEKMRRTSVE
Chain of LRRK2 wild type enzyme (Q5S007 whole entry): as above

| Compound | IC50 (LRRK2 wild type enzyme) [nM] | IC50 [1] [nM] |
| --- | --- | --- |
| C[C@@H]1C[C@H](n2c(CC(=O)NCCc3ccccn3)nc3cnc4ccc(C#N)cc4c32)CCO1 [Compound 366, N-[2-(2-pyridyl)ethyl]{3-[(2R,4R)-2-methyltetrahydro-2H-pyran-4-yl]-12-cyano-3,5,8-triazatricyclo[7.4.0.0^2,6]trideca-1,4,6,8,10,12-hexaen-4-yl}acetamide] | 0.587 | 28.4 |
| Cc1nnc(CNC(=O)Cc2nc3cnc4ccc(C#N)cc4c3n2[C@@H]2CCO[C@H](C)C2)o1 [Compound 257, N-[(5-methyl-1,3,4-oxadiazol-2-yl)methyl]{3-[(2R,4R)-2-methyltetrahydro-2H-pyran-4-yl]-12-cyano-3,5,8-triazatricyclo[7.4.0.0^2,6]trideca-1(9),2(6),4,7,10,12-hexaen-4-yl}acetamide] | 0.451 | 97 |
| Cc1nc(C)c(NC(=O)Cc2nc3cnc4ccc(C#N)cc4c3n2[C@@H]2CCO[C@H](C)C2)c(C)n1 [Compound 253, N-(2,4,6-trimethyl-5-pyrimidinyl){3-[(2R,4R)-2-methyltetrahydro-2H-pyran-4-yl]-12-cyano-3,5,8-triazatricyclo[7.4.0.0^2,6]trideca-1,4,6,8,10,12-hexaen-4-yl}acetamide] | 0.538 | 25.8 |
| C[C@@H]1C[C@H](n2c(CC(=O)N[C@H]3CCOC3)nc3cnc4ccc(Cl)cc4c32)CCO1 [Compound 147, 2-{8-chloro-1-[(2R,4R)-2-methyloxan-4-yl]-1H-imidazo[4,5-c]quinolin-2-yl}-N-[(3S)-oxolan-3-yl]acetamide] | 0.386 | 10 |
| C[C@@H]1C[C@H](n2c(CC(=O)NCC3CCCCO3)nc3cnc4ccc(C#N)cc4c32)CCO1 (stereo partly drawn) [Compound 143, 2-{8-cyano-1-[(2R,4R)-2-methyloxan-4-yl]-1H-imidazo[4,5-c]quinolin-2-yl}-N-[(oxan-2-yl)methyl]acetamide] | 0.534 | 11.5 |
| C[C@@H]1C[C@H](n2c(C3CC(=O)N([C@@H](C)C4CC4)C3)nc3cnc4ccc(C#N)cc4c32)CCO1 (stereo partly drawn) [Compound 35, 2-{1-[(1S)-1-cyclopropylethyl]-5-oxopyrrolidin-3-yl}-1-[(2R,4R)-2-methyloxan-4-yl]-1H-imidazo[4,5-c]quinoline-8-carbonitrile] | 2.98 | 179 |
| C[C@@H]1C[C@H](n2c(CC(=O)NCC3CC3)nc3cnc4ccc(C#N)cc4c32)CCO1 [Compound 54, 2-{8-cyano-1-[(2R,4R)-2-methyloxan-4-yl]-1H-imidazo[4,5-c]quinolin-2-yl}-N-(cyclopropylmethyl)acetamide] | 0.336 | 14.9 |
| CN1CC(n2c(CC(=O)NCC3CC3)nc3cnc4ccc(C#N)cc4c32)CCC1=O (single isomer, unassigned) [Compound 90] | 1.42 | 799 |
| C[C@@H]1C[C@H](n2c(CC(=O)Nc3ccccc3)nc3cnc4ccc(C#N)cc4c32)CCO1 [Compound 330, N-phenyl{3-[(2R,4R)-2-methyltetrahydro-2H-pyran-4-yl]-12-cyano-3,5,8-triazatricyclo[7.4.0.0^2,6]trideca-1(9),2(6),4,7,10,12-hexaen-4-yl}acetamide] | 0.507 | 4.68 |
| C[C@@H]1C[C@H](n2c(CC(=O)NCc3cnccn3)nc3cnc4ccc(Cl)cc4c32)CCO1 [Compound 150, 2-{8-chloro-1-[(2R,4R)-2-methyloxan-4-yl]-1H-imidazo[4,5-c]quinolin-2-yl}-N-[(pyrazin-2-yl)methyl]acetamide] | 0.47 | 7.19 |
| C[C@@H]1C[C@H](n2c(CC(=O)NCc3ncccn3)nc3cnc4ccc(Cl)cc4c32)CCO1 [Compound 142, 2-{8-chloro-1-[(2R,4R)-2-methyloxan-4-yl]-1H-imidazo[4,5-c]quinolin-2-yl}-N-[(pyrimidin-2-yl)methyl]acetamide] | 0.565 | 17.8 |
| C[C@@H]1C[C@H](n2c(C3CC(=O)N(C)C3)nc3cnc4ccc(C#N)cc4c32)CCO1 (mixture of isomers) [Compound 53, 2-[(3RS)-1-methyl-5-oxopyrrolidin-3-yl]-1-[(2R,4R)-2-methyloxan-4-yl]-1H-imidazo[4,5-c]quinoline-8-carbonitrile] | 3.16 | 666 |
| CN1CC(n2c(C3CC(=O)N(CC4CC4)C3)nc3cnc4ccc(C#N)cc4c32)CCC1=O (single isomer, unassigned) [Compound 140] | 42.1 | > 10000 |
| COCC1(NC(=O)Cc2nc3cnc4ccc(C#N)cc4c3n2[C@@H]2CCO[C@H](C)C2)CC1 [Compound 276] | 0.922 | 86 |
| C[C@@H]1C[C@H](n2c(CC(=O)Nc3cnccn3)nc3cnc4ccc(C#N)cc4c32)CCO1 [Compound 337, N-2-pyrazinyl{3-[(2R,4R)-2-methyltetrahydro-2H-pyran-4-yl]-12-cyano-3,5,8-triazatricyclo[7.4.0.0^2,6]trideca-1,4,6,8,10,12-hexaen-4-yl}acetamide] | 0.337 | 1.61 |
| C[C@@H]1C[C@H](n2c(CC(=O)NCC(F)(F)CO)nc3cnc4ccc(C#N)cc4c32)CCO1 [Compound 233, N-(2,2-difluoro-3-hydroxypropyl){3-[(2R,4R)-2-methyltetrahydro-2H-pyran-4-yl]-12-cyano-3,5,8-triazatricyclo[7.4.0.0^2,6]trideca-1,4,6,8,10,12-hexaen-4-yl}acetamide] | 0.837 | 247 |
| C[C@@H]1C[C@H](n2c(CNC(=O)C3CC3)nc3cnc4ccc(C#N)cc4c32)CCO1 [Compound 17, N-({8-cyano-1-[(2R,4R)-2-methyloxan-4-yl]-1H-imidazo[4,5-c]quinolin-2-yl}methyl)cyclopropanecarboxamide] | 6.61 | 477 |
| Cc1ccc(NC(=O)Cc2nc3cnc4ccc(C#N)cc4c3n2[C@@H]2CCO[C@H](C)C2)c(C)n1 [Compound 270, N-(2,6-dimethyl-3-pyridyl){3-[(2R,4R)-2-methyltetrahydro-2H-pyran-4-yl]-12-cyano-3,5,8-triazatricyclo[7.4.0.0^2,6]trideca-1,4,6,8,10,12-hexaen-4-yl}acetamide] | 0.504 | 7.36 |
| C[C@@H]1C[C@H](n2c(CC(=O)NCc3cc(C4CC4)on3)nc3cnc4ccc(C#N)cc4c32)CCO1 [Compound 161, 2-{8-cyano-1-[(2R,4R)-2-methyloxan-4-yl]-1H-imidazo[4,5-c]quinolin-2-yl}-N-[(5-cyclopropyl-1,2-oxazol-3-yl)methyl]acetamide] | 0.356 | 4.38 |
| C[C@@H]1C[C@H](n2c(CC(=O)Nc3ccc(=O)n(C)c3)nc3cnc4ccc(Cl)cc4c32)CCO1 [Compound 219, N-(1-methyl-6-oxo-1,6-dihydro-3-pyridyl){3-[(2R,4R)-2-methyltetrahydro-2H-pyran-4-yl]-12-chloro-3,5,8-triazatricyclo[7.4.0.0^2,6]trideca-1,4,6,8,10,12-hexaen-4-yl}acetamide] | 0.232 | 15.8 |
| Cc1noc(CNC(=O)Cc2nc3cnc4ccc(C#N)cc4c3n2[C@@H]2CCO[C@H](C)C2)n1 [Compound 279, N-[(3-methyl-1,2,4-oxadiazol-5-yl)methyl]{3-[(2R,4R)-2-methyltetrahydro-2H-pyran-4-yl]-12-cyano-3,5,8-triazatricyclo[7.4.0.0^2,6]trideca-1(9),2(6),4,7,10,12-hexaen-4-yl}acetamide] | 0.776 | 86.3 |
| CCn1cc(NC(=O)Cc2nc3cnc4ccc(C#N)cc4c3n2[C@@H]2CCO[C@H](C)C2)cn1 [Compound 310, N-(1-ethyl-4-pyrazolyl){3-[(2R,4R)-2-methyltetrahydro-2H-pyran-4-yl]-12-cyano-3,5,8-triazatricyclo[7.4.0.0^2,6]trideca-1,4,6,8,10,12-hexaen-4-yl}acetamide] | 0.712 | 15.4 |
| Cc1nc2n(n1)CC(NC(=O)Cc1nc3cnc4ccc(C#N)cc4c3n1[C@@H]1CCO[C@H](C)C1)CC2 (stereo partly drawn) [Compound 244, N-(2-methyl-4,5,6,7-tetrahydro-1,3,3a-triaza-5-indenyl){3-[(2R,4R)-2-methyltetrahydro-2H-pyran-4-yl]-12-cyano-3,5,8-triazatricyclo[7.4.0.0^2,6]trideca-1,4,6,8,10,12-hexaen-4-yl}acetamide] | 1.39 | 2630 |
| C[C@@H]1C[C@H](n2c(CC(=O)Nc3nccc(C(F)(F)F)n3)nc3cnc4ccc(C#N)cc4c32)CCO1 [Compound 361, N-[4-(trifluoromethyl)-2-pyrimidinyl]{3-[(2R,4R)-2-methyltetrahydro-2H-pyran-4-yl]-12-cyano-3,5,8-triazatricyclo[7.4.0.0^2,6]trideca-1(9),2(6),4,7,10,12-hexaen-4-yl}acetamide] | 0.454 | 4.23 |
| CCc1ncc(NC(=O)Cc2nc3cnc4ccc(C#N)cc4c3n2[C@@H]2CCO[C@H](C)C2)cn1 [Compound 262, N-(2-ethyl-5-pyrimidinyl){3-[(2R,4R)-2-methyltetrahydro-2H-pyran-4-yl]-12-cyano-3,5,8-triazatricyclo[7.4.0.0^2,6]trideca-1,4,6,8,10,12-hexaen-4-yl}acetamide] | 0.467 | 18.2 |
| COc1nccc(F)c1NC(=O)Cc1nc2cnc3ccc(C#N)cc3c2n1[C@@H]1CCO[C@H](C)C1 [Compound 202, N-(4-fluoro-2-methoxy-3-pyridyl){3-[(2R,4R)-2-methyltetrahydro-2H-pyran-4-yl]-12-cyano-3,5,8-triazatricyclo[7.4.0.0^2,6]trideca-1,4,6,8,10,12-hexaen-4-yl}acetamide] | 0.364 | 8.58 |
